Test results reported in EP0800516B1, “FIBRINOGEN RECEPTOR ANTAGONISTS HAVING SUBSTITUTED (b)-AMINO ACID RESIDUES AND PHARMACEUTICAL COMPOSITIONS COMPRISING THE SAME” (Nippon Steel Corporation, priority 1994, dated 1996).

System: Human Platelet Aggregation
Assay: in vitro human platelet aggregation using PRP (collagen-induced, light transmittance)
Assay type: cell-based
Details: aggregation induced with collagen (final concentration: 5 µ g/ml), 37°C
Excerpt: (Measurement of in vitro Human Platelet Aggregation using PRP)
Healthy male volunteers who had not taken any medicines for at least two weeks were selected as subjects. Blood was collected from the forearm vein of each subject on an empty stomach using a #19 needle and a plastic syringe preliminarily charged with 1/10 volume of a 3.8% sodium citrate solution. Immediately after the blood collection, the syringe was shaken gently to mix the blood with the sodium citrate solution. The mixed blood was centrifuged (1100 rpm, 250 g) at room temperature for 15 minutes and the rotation was stopped without applying the brake. Then, the supernatant was collected with a Komagome type pipette to obtain platelet-rich plasma (PRP). The PRP was stored at room temperature. The blood remaining after centrifuging was further centrifuged (3500 rpm, 1500 g) at room temperature for 15 minutes and the rotation was stopped without applying the brake. The supernatant was collected to obtain platelet-poor plasma (PPP). After the preparation of the PRP, the number of platelets was counted and only samples containing more than 2 x 10^8 of platelets per milliliter were subjected to the following experiments.
Platelet aggregation was measured using an 8-channel platelet aggregation measuring instrument (Hematracer, Nikoh Bioscience, Tokyo, Japan) on the basis of the change in light transmittance through the PRP. First, the PPP and PRP (each 200µl) were placed in glass cuvettes and incubated at 37°C . Thereafter, the transmittance was measured. The transmittance of the PPP was determined as 100% and that of the PRP as 0%. Then, 10µl of physiological saline or a sample-containing physiological saline was added to the PRP and incubated at 37°C for one minute. A collagen solution (10 µ l) at a concentration of […] was added (final concentration: 5 µ g/ml) to induce aggregation and thereafter the transmittance was measured over 7 minutes. After aggregation with collagen and ADP was confirmed, only those samples in which the maximum aggregation with collagen was at least 70% were subjected to the experiment.
The sample was dissolved in physiological saline to give a concentration of 2.2 x 10 ^-2 M and a 2-fold dilution series was prepared for use in the experiments. The samples insoluble in the physiological saline were dissolved in physiological saline containing 10% DMSO (dimethyl sulfoxide).
The results were calculated as follows: [formula]
A graph was constructed by plotting the percent aggregation inhibition against the sample concentration and the concentration at which the aggregation was inhibited by 50% (IC50) was calculated from the graph.

| Compound | IC50 |
| --- | --- |
| CC(C)(C(=O)N1CCC(CC(=O)O)CC1)C(NC(=O)c1ccc(C(=N)N)cc1)c1ccc(F)cc1 (stereo not drawn) [Example 10, N-(N-4-amidinobenzoyl-β-p-fluorophenyl-α, α-dimethyl-β-alanyl)-4-piperidineacetic acid] | 230 nM |
| CC(NC(=O)c1ccc(C(=N)N)cc1)C(C)(C)C(=O)N1CCC(CC(=O)O)CC1 (stereo not drawn) [Example 22, N-(N-4-amidinobenzoyl-β-methyl-α,α-dimethyl-β-alanyl)-4-piperidineacetic acid] | 520 nM |
| CCCCCC(NC(=O)c1ccc(C(=N)N)cc1)C(C)(C)C(=O)N1CCC(CC(=O)O)CC1 (stereo not drawn) [Example 7, N-(N-4-amidinobenzoyl-β-normal-pentyl-α,α -dimethyl-β-alanyl)-4-piperidineacetic acid] | 170 nM |
| CC(C)CC(NC(=O)c1ccc(C(=N)N)cc1)C(C)(C)C(=O)N1CCC(CC(=O)O)CC1 (stereo not drawn) [Example 24, N-(N-4-amidinobenzoyl-β-i-butyl-α,α-dimethyl-β-alanyl)-4-piperidineacetic acid] | 80 nM |
| CCC(C(=O)N1CCC(CC(=O)O)CC1)C(NC(=O)c1ccc(C(=N)N)cc1)c1ccccc1 (stereo not drawn) [Comparative Example 5, N-(N-4-amidinobenzoyl-β-phenyl-α -ethyl-β-alanyl)-4-piperidineacetic acid, reference compound] | 16000 nM |
| CCC(NC(=O)c1ccc(C(=N)N)cc1F)C(C)(C)C(=O)N1CCC(CC(=O)O)CC1 (stereo not drawn) [Example 39, N-(N-4-amidino-2-fluorobenzoyl-β-ethyl-α, α-dimethyl-β-alanyl)-4-piperidineacetic acid] | 61 nM |
| CCCCc1ccc(C(NC(=O)c2ccc(C(=N)N)cc2)C(C)(C)C(=O)N2CCC(CC(=O)O)CC2)cc1 (stereo not drawn) [Example 32, N-(N-4-amidinobenzoyl-β-p-n-butylphenyl-α, α-dimethyl-β-alanyl)-4-piperidineacetic acid] | 150 nM |
| COc1ccc(C(NC(=O)c2ccc(C(=N)N)cc2)C(C)(C)C(=O)N2CCC(CC(=O)O)CC2)cc1 (stereo not drawn) [Example 8, N-(N-4-amidinobenzoyl-β-p-methoxyphenyl-α, α-dimethyl-β-alanyl)-4-piperidineacetic acid] | 250 nM |
| CC(C)C(CNC(=O)c1ccc(C(=N)N)cc1)C(=O)N1CCC(CC(=O)O)CC1 (stereo not drawn) [Comparative Example 7, N-(N-4-amidinobenzoyl-α-isopropyl-β-alanyl)-4-piperidineacetic acid, reference compound] | 17000 nM |
| CC(C)(C(=O)N1CCC(CC(=O)O)CC1)C(NC(=O)c1ccc(C(=N)N)cc1)C1CCNCC1 (stereo not drawn) [Example 15, N-(N-4-amidinobenzoyl-β-(4-piperidyl)-α, α-dimethyl-β-alanyl)-4-piperidineacetic acid] | 180 nM |
| CC(C(=O)N1CCC(CC(=O)O)CC1)C(NC(=O)c1ccc(C(=N)N)cc1)c1ccccc1 (stereo not drawn) [Comparative Example 10, N-(N-4-amidinobenzoyl-β-phenyl-α-methyl-β-alanyl)-4-piperidineacetic acid, reference compound] | 16000 nM |
| CC(C)(C(=O)N1CCC(CC(=O)O)CC1)C(NC(=O)c1ccc(C(=N)N)cc1)c1ccc(Cl)cc1 (stereo not drawn) [Example 25, N-(N-4-amidinobenzoyl-β-p-chlorophenyl-α,α -dimethyl-β-alanyl)-4-piperidineacetic acid] | 480 nM |
